Experimental data: US4337256A, “1-Phenyl isoquinoline-5-acetic acid compounds and analgesic compositions thereof” (priority 1978, dated 1982)
Read-outs that look alike come from different tables or passages of the source.

What was measured:
Toxicity test (LD50) = details: mouse, in vivo; oral, observed for 1 week; parentheses show 95% confidence limits
Description: Each of the test compounds was suspended in a physiological saline solution having dissolved therein 2% of Tween 80, and orally administered through a tube to groups of ddY mice (male: 19 to 22 g) each group consisting of 6 mice. The mice were then observed for 1 week. The LD50 values were calculated from the lethality in accordance with the method of Litchfield-Wilcoxon.

[1] = system: left hind paw edema (carrageenin); assay: Anti-inflammatory activity: carrageenin-induced left hind paw edema; format: in vivo, male Wistar rats; details: Rattus norvegicus, po, read-out: Percent inhibition (edema)
Description: Male Wistar rats weighing 120 to 150 g which had been fasted for 24 hours were used in groups each consisting of 5 rats. In each group, the volumes of the left hind paw were measured by a volume differential meter (made by Ugo Basile Company), and each of the test compounds was suspended in an aqueous solution of 0.5% of carboxymethyl cellulose and 2.0% of Tween 80, and administered orally through a tube. After one hour from the administration, 0.1 ml of a 1% suspension of carrageenin in distilled water was subcutaneously injected into the plantar tissues of the left hind paw. Three hours later, the volumes of the left hind paw were again measured. The increase in volume of the left hind paw of each rat in each group (the volume of edema) was measured.

[2] = system: writhings (acetic acid) in the mice; assay: Analgesic activity: acetic acid writhing test; format: in vivo, male mice (ddY); details: Mus musculus, po, read-out: ED50 (analgesic, writhing inhibition)
Description: Male mice (ddY) weighing 18 to 22 g were used in groups each consisting of 10 mice. Each of the compounds was suspended in an aqueous solution of 0.5% of carboxymethyl cellulose and 2.0% of Tween 80, and administered orally through a tube. After one hour from the administration, 0.6% acetic acid was administered intraperitoneally in an amount of 0.1 ml per 10 g of body weight, and the number of writhings which occurred in the mice during a period of 20 minutes after the administration was measured. The percent inhibition was calculated from the following equation, and the ED50 values of the test compounds were calculated from the percent inhibition in accordance with the method of Litchfield-Wilcoxon.

stomach mucosal membrane = assay: Ulcerogenic activity: gastric ulceration; format: in vivo, male Wistar rats; details: p.o., 4 h
Description: Each of the test compounds was orally administered by the same way as in the test on anti-inflammatory activity to male Wistar rats weighing 120 to 150 g which had been fasted for 24 hours. Four hours later, they were killed with ether.

digestive organs = details: known agents, statement in words; cited from earlier work
[3] = target: T1, microsomes of bovine seminal vesicle (a prostaglandin synthesizing enzyme) (Bos taurus, UniProt O62664); assay: Activity of inhibiting prostaglandin synthesis (prostaglandin E2 formed); format: biochemical; details: 37° C., 5 minutes, pH 8.0, 50 μM arachidonic acid; dissolved as a sodium salt; read-out: ED50 (inhibition of prostaglandin synthesis)
T1 construct: a microsome fraction prepared from bovine seminal vesicle; from tissue; host or cells: bovine seminal vesicle, lyophilized microsome fraction
T1 sequence (O62664 25-600): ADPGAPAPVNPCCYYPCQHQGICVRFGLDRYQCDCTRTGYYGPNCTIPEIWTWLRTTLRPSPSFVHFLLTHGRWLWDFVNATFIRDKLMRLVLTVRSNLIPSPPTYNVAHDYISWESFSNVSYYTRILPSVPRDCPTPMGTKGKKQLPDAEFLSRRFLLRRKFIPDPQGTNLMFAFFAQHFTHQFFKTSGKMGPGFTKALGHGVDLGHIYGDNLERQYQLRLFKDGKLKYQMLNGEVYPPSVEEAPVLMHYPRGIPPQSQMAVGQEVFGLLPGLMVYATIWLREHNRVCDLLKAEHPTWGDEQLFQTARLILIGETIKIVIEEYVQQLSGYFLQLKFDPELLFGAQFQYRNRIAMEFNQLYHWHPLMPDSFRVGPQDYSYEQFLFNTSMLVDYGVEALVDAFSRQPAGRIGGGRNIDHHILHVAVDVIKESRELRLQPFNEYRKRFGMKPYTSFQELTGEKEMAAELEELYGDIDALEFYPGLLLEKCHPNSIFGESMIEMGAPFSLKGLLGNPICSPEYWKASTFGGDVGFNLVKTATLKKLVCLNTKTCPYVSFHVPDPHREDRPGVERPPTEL
Description: The activity of inhibiting prostaglandin synthesis was measured by adding a test compound, i.e. a substance having the activity of inhibiting prostaglandin synthesis, to a prostaglandin synthesizing reaction system shown below, and quantitatively determining to what extent synthesis of prostaglandin was inhibited.
100 mM tris-HCl buffer (pH=8.0),
0.0125 μCi/ml (14c)-arachidonic acid,
1 mg/ml, as protein, of microsomes of bovine seminal vesicle (a prostaglandin synthesizing enzyme obtained by lyophylizing a microsome fraction prepared from bovine seminal vesicle).
The test compound was added to the reaction system to adjust the total amount to 1 ml. As a control, 1 ml of the above reaction system without addition of the test compound was provided. Each of these was incubated with shaking at 37° C. for 5 minutes, and 0.5 ml of 0.3 M citric acid was added to stop the reaction. The prostaglandin formed was extracted with ethyl acetate, fractionated by thin-layer chromatography. The radioactivity of each fraction was measured by a liquid scintillation counter. The amount of prostaglandin E2 formed in the group to which the test compound had been applied was measured, and the percent inhibition was calculated in accordance with the following equation. From the percent inhibition, the ED50 value of the test compounds was calculated in accordance with the Litchfield-Wilcoxon method. […]

[4] = 1 mg/kg, p.o., 1 h before carrageenin, measured 3 h later
[5] = 3 mg/kg, p.o., 1 h before carrageenin, measured 3 h later
[6] = p.o. 1 h before 0.6% acetic acid i.p., parentheses show 95% confidence limits
[7] = 10 mg/kg, p.o., 1 h before carrageenin, measured 3 h later
[8] = p.o., 1 h before carrageenin, measured 3 h later

Structure (SMILES) | LD50 at 168 h (Toxicity test (LD50)) [mg/kg] | inhibition in vivo at 1 mg/kg [1, 4] [%] | inhibition in vivo at 3 mg/kg [1, 5] [%] | ED50 [2, 6] [mg/kg] | Gastric ulceration: bleeding at the mucosal membrane (stomach mucosal membrane; 10 mg/kg) | Gastric ulceration: damage beneath the mucosal membrane (stomach mucosal membrane; 10 mg/kg) | Gastric ulceration: bleeding at the mucosal membrane (stomach mucosal membrane; 30 mg/kg) | Gastric ulceration: damage beneath the mucosal membrane (stomach mucosal membrane; 30 mg/kg) | inhibition in vivo at 10 mg/kg [1, 7] [%] | other results
O=C(O)Cc1cccc2c(-c3ccc(Br)cc3)nccc12 [B, 1-(4-bromophenyl)isoquinoline-5-acetic acid] | 182 | 33.7 ± 6.1 | 48.2 ± 4.4 | 1 | 0/5 | 0/5 | 2/5 | 4/5 |  | inhibition in vivo at 0.3 mg/kg ([1]; 0.3 mg/kg, p.o., 1 h before carrageenin, measured 3 h later): 26.8 ± 5.3%
O=C(O)Cc1cccc2c(-c3ccc(F)cc3)nccc12 [C, 1-(4-fluorophenyl)isoquinoline-5-acetic acid] | > 300 | 25.6 ± 3.4 | 28.3 ± 5.8 | 8.8 |  |  |  |  | 36.5 ± 4 | 
Cc1ccc(-c2nccc3c(CC(=O)O)cccc23)cc1 [Compound E, 1-(4-methylphenyl)isoquinoline-5-acetic acid] | > 300 |  | 26.9 ± 5.2 | 4.3 | 0/5 | 0/5 | 0/5 | 4/5 | 49.5 ± 5.1 | 
O=C(O)Cc1cccc2c(C3CCCCC3)nccc12 [Compound L, 1-cyclohexylisoquinoline-5-acetic acid] | > 300 | 9.7 ± 2 | 17.4 ± 5.2 | 8.5 | 0/5 | 0/5 | 3/5 | 3/5 | 43.1 ± 4.3 | 
CN(C)c1ccc(-c2nccc3c(CC(=O)O)cccc23)cc1 [D, 1-(4-dimethylaminophenyl)isoquinoline-5-acetic acid] | > 300 | 16.3 ± 7.1 | 34.2 ± 5.6 | 0.11 | 0/6 | 0/6 | 3/6 | 3/6 | 42.1 ± 5.3 | 
CC(C(=O)O)c1cccc2c(-c3ccc(Cl)cc3)nccc12 (centres unmarked) [F, 2-[1-(4-chlorophenyl)isoquinolin-5-yl]propionic acid] |  | 27.3 ± 6.3 | 33.1 ± 4.8 | 3.2 | 1/5 | 0/5 | 2/5 | 2/5 | 39.7 ± 5.1 | 
COc1ccc(-c2nccc3c(CC(=O)O)cccc23)cc1 [G, 1-(4-methoxyphenyl)isoquinoline-5-acetic acid] | > 300 | 13.1 ± 9.1 | 32.3 ± 6.3 | 9.2 |  |  | 0/5 | 0/5 | 41.2 ± 7.2 | 
O=C(O)Cc1cccc2c(-c3ccccc3)nccc12 [H, 1-phenylisoquinoline-5-acetic acid] | > 300 |  | 21.8 ± 4.5 | 4.1 | 1/15 | 1/15 | 4/20 | 2/20 | 31 ± 5.2 | inhibition in vivo at 30 mg/kg [1, 8]: 46.4 ± 7.7%
O=C(O)Cc1cccc2c(-c3ccc(C(F)(F)F)cc3)nccc12 [I, 1-(4-trifluoromethylphenyl)isoquinoline-5-acetic acid] |  |  | 17 ± 4.5 |  |  |  |  |  | 24.5 ± 7.1 | inhibition in vivo at 30 mg/kg [1, 8]: 30.2 ± 5.3%
COc1ccc2c(c1)c(CC(=O)O)c(C)n2C(=O)c1ccc(Cl)cc1 [Indomethacin, reference compound] | 17.3 |  |  |  |  |  |  |  |  | inhibition in vivo at 1 mg/kg ([1]; 3 h): 15.9 ± 6.2%; inhibition in vivo at 3 mg/kg ([1]; 3 h): 29.8 ± 5.7%; inhibition in vivo at 10 mg/kg ([1]; 3 h): 40.6 ± 5.1%; troubles in the digestive organs (digestive organs): fairly heavy troubles in the digestive organs; ED50 ([2]; 1 h): 0.21 mg/kg
CCOC(=O)Cc1cccc2c(-c3ccccc3)nccc12 [J, ethyl-1-phenylisoquinoline-5-acetate] |  |  |  |  |  |  |  |  | 23.2 ± 6.1 | inhibition in vivo at 30 mg/kg [1, 8]: 41.1 ± 4.8%
NC(=O)Cc1cccc2c(-c3ccccc3)nccc12 [K, 1-phenylisoquinoline-5-acetamide] |  |  |  |  |  |  |  |  | 9 ± 6.4 | inhibition in vivo at 30 mg/kg [1, 8]: 39.7 ± 5.8%
CC(C)c1nccc2c(CC(=O)O)cccc12 [M, 1-isopropylisoquinoline-5-acetic acid] | 250 | 19.3 ± 2.6 | 38.6 ± 3.2 | 3.5 |  |  |  |  | 62.9 ± 5.9 | 
O=C(O)Cc1cccc2c(C3CCCC3)nccc12 [N, 1-cyclopentylisoquinoline-5-acetic acid] |  |  | 21.9 ± 8.1 |  |  |  |  |  | 24.8 ± 4.9 | 
CC(C)Cc1nccc2c(CC(=O)O)cccc12 [O, 1-isobutylisoquinoline-5-acetic acid] |  |  | 21.2 ± 7.8 |  |  |  |  |  | 30.3 ± 5.6 | inhibition in vivo at 30 mg/kg [1, 8]: 42.8 ± 8.8%
CCC(C)c1nccc2c(CC(=O)O)cccc12 (centres unmarked) [P, 1-sec-butylisoquinoline-5-acetic acid] |  |  | 15.9 ± 10.4 |  |  |  |  |  | 39.6 ± 7 | 
CCCCC1C(=O)N(c2ccccc2)N(c2ccccc2)C1=O [Phenylbutazone, reference compound] |  |  |  | 109 |  |  |  |  |  | troubles in the digestive organs (digestive organs): fairly heavy troubles in the digestive organs; IC50 [3]: 26.1 µM
